Data as given in US10981926B2 (Janssen Pharmaceutica NV, priority 2016, dated 2021).

What was measured:
Format in all cases: cell-based
[1] = molecular target: T1, wild-type Androgen Receptor (AR-wt) (Homo sapiens (Human), UniProt P10275); assay: LNCaP-AR-wt AG reporter assay (agonist mode); settings: agonist mode; for Emax: maximum % stimulation over tested concentration range, read-out: LNCaP-AR-wt AG MAX % Stim; for EC50: pEC50 = −Log10(EC50 in Molar), read-out: LNCaP-AR-wt AG pEC50 (converted)
[2] = molecular target: T1, wild-type Androgen Receptor (AR-wt); assay: LNCaP-AR-wt ANT reporter assay (antagonist mode); settings: antagonist mode; for Emax: maximum % inhibition of R1881 control response over tested concentration range, read-out: LNCaP-AR-wt ANT MAX % Inh; for IC50: pIC50 = −Log10(IC50 in Molar), read-out: LNCaP-AR-wt ANT pIC50 (converted)
[3] = molecular target: T2, F876L mutant Androgen Receptor (AR-F876L) (Homo sapiens (Human), UniProt P10275, F877L); assay: LNCaP-AR-F876L ANT reporter assay (antagonist mode); settings: antagonist mode; for Emax: maximum % inhibition of R1881 control response over tested concentration range, read-out: LNCaP-AR-F876L ANT MAX % Inh; for IC50: pIC50 = −Log10(IC50 in Molar), read-out: LNCaP-AR-F876L ANT pIC50 (converted)
[4] = molecular target: T2, F876L mutant Androgen Receptor (AR-F876L); assay: LNCaP-AR-F876L AG reporter assay (agonist mode); settings: agonist mode; for Emax: maximum % stimulation over tested concentration range, read-out: LNCaP-AR-F876L AG MAX % Stim; for EC50: pEC50 = −Log10(EC50 in Molar), read-out: LNCaP-AR-F876L AG pEC50 (converted)

T1 sequence (P10275 whole entry): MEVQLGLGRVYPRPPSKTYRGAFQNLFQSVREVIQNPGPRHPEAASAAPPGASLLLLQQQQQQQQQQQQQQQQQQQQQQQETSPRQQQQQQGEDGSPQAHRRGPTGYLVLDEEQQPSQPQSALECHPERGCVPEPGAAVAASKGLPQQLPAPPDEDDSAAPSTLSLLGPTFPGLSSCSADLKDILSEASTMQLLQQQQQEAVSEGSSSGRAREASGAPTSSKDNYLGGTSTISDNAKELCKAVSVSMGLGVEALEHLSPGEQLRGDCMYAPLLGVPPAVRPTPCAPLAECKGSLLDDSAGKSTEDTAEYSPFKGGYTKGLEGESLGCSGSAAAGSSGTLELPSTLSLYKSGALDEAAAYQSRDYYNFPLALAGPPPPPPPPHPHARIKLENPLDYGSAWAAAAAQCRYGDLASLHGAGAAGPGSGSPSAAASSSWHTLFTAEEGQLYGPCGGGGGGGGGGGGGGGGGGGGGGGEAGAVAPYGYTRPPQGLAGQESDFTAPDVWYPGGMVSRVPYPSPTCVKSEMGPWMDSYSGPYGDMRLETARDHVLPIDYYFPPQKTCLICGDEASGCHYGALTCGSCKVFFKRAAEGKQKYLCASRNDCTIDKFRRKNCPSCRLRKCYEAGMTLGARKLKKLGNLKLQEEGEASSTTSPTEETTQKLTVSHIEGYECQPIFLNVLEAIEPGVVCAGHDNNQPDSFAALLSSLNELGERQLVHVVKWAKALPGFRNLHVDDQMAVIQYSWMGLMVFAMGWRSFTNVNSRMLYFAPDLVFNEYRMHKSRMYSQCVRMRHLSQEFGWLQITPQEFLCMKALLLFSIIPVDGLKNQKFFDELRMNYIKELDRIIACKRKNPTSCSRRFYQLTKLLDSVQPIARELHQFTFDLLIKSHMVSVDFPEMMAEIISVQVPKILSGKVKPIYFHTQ
T2 sequence (P10275 whole entry F877L): as the sequence (P10275 whole entry) above, with F877L counted along it

Row | Compound | Emax [1] | EC50 [1] | Emax [2] | IC50 [2] | Emax [3] | IC50 [3] | Emax [4] | EC50 [4]
1 | N#Cc1ncc(N2C(=O)C3(CCC3)N(c3ccc(C(=O)NC[C@@H]4CCCNC4)c(F)c3)C2=S)cc1C(F)(F)F [Cpd 202, 4-[6-[6-cyano-5-(trifluoromethyl)-3-pyridyl]-5-oxo-7-thioxo-6,8-diazaspiro[3.4]octan-8-yl]-2-fluoro-N-[[(3R)-3-piperidyl]methyl]benzamide] | -0.1% | > 15100 nM | 102% | 1100 nM | 101% | 603 nM | 0% | > 15100 nM
2 | CN1CCC[C@H](CNC(=O)c2ccc(N3C(=S)N(c4cnc(C#N)c(C(F)(F)F)c4)C(=O)C34CCC4)cc2F)C1 [Cpd 203, 4-[6-[6-cyano-5-(trifluoromethyl)-3-pyridyl]-5-oxo-7-thioxo-6,8-diazaspiro[3.4]octan-8-yl]-2-fluoro-N-[[(3R)-1-methyl-3-piperidyl]methyl]benzamide] | -0.1% | > 15100 nM | 102% | 891 nM | 100% | 562 nM | 0% | > 15100 nM
3 | N#Cc1ncc(N2C(=O)C3(CCC3)N(c3ccc(C(=O)NC[C@H]4CCCNC4)c(F)c3)C2=S)cc1C(F)(F)F [Cpd 204, 4-[6-[6-cyano-5-(trifluoromethyl)-3-pyridyl]-5-oxo-7-thioxo-6,8-diazaspiro[3.4]octan-8-yl]-2-fluoro-N-[[(3S)-3-piperidyl]methyl]benzamide] | 0.1% | > 15100 nM | 102% | 2450 nM | 99.7% | 1950 nM | 0% | > 15100 nM
4 | CN1CC[C@@H](CNC(=O)c2ccc(N3C(=S)N(c4cnc(C#N)c(C(F)(F)F)c4)C(=O)C34CCC4)cc2F)C1 [Cpd 205, 4-[6-[6-cyano-5-(trifluoromethyl)-3-pyridyl]-5-oxo-7-thioxo-6,8-diazaspiro[3.4]octan-8-yl]-2-fluoro-N-[[(3S)-1-methylpyrrolidin-3-yl]methyl]benzamide] | -0.1% | > 15100 nM | 101% | 1100 nM | 100% | 708 nM | 0.1% | > 15100 nM
5 | CN1CC[C@H](CNC(=O)c2ccc(N3C(=S)N(c4cnc(C#N)c(C(F)(F)F)c4)C(=O)C34CCC4)cc2)C1 [Cpd 206, 4-[6-[6-cyano-5-(trifluoromethyl)-3-pyridyl]-5-oxo-7-thioxo-6,8-diazaspiro[3.4]octan-8-yl]-N-[[(3R)-1-methylpyrrolidin-3-yl]methyl]benzamide] | 0.1% | > 15100 nM | 101% | 851 nM | 99.3% | 617 nM | 0.1% | > 15100 nM
6 | CN(C)C1(COc2ccc(N3C(=S)N(c4cnc(C#N)c(C(F)(F)F)c4)C(=O)C34CCC4)cc2)COC1 [Cpd 208, 5-[8-[4-[[3-(dimethylamino)oxetan-3-yl]methoxy]phenyl]-5-oxo-7-thioxo-6,8-diazaspiro[3.4]octan-6-yl]-3-(trifluoromethyl)pyridine-2-carbonitrile] | 0% | > 15100 nM | 103% | 871 nM | 101% | 1020 nM | 0% | > 15100 nM
7 | CN1CCC(CN(C)C(=O)c2ccc(N3C(=S)N(c4cnc(C#N)c(C(F)(F)F)c4)C(=O)C34CCC4)cc2)CC1 [Cpd 209, 4-[6-[6-cyano-5-(trifluoromethyl)-3-pyridyl]-5-oxo-7-thioxo-6,8-diazaspiro[3.4]octan-8-yl]-N-methyl-N-[(1-methyl-4-piperidyl)methyl]benzamide] | -0.1% | > 15100 nM | 99% | 457 nM | 100% | 417 nM | 0% | > 15100 nM
8 | CN1CCC(C)(Oc2ccc(N3C(=S)N(c4cnc(C#N)c(C(F)(F)F)c4)C(=O)C34CCC4)cn2)CC1 [Cpd 210, 5-[8-[6-[(1,4-dimethyl-4-piperidyl)oxy]-3-pyridyl]-5-oxo-7-thioxo-6,8-diazaspiro[3.4]octan-6-yl]-3-(trifluoromethyl)pyridine-2-carbonitrile] | 0.1% | > 15100 nM | 102% | 1170 nM | 100% | 1100 nM | 0.1% | > 15100 nM
